This passage reports IC50 results from paper PMC8341744 (RSC Chemical Biology, 2020).

Where two headings read alike, the source gives them in different places.

Experiment [1] concerns the target T1, Mcl-1 (Mus musculus, UniProt P97287, F227L/F267C/G222D/K236S/Q303E/S261T/T274S/V232I/V262I). Briefly: FITC-NoxaB Mcl-1 competitive binding fluorescence anisotropy. Background: Polarisation of emitted light reports the rotation of a fluorescent probe.
For experiment [2], the target named is T1, Mcl-1. The settings on record: Mcl-1/Noxa; parent peptide; cited from earlier work.

One may read the IC50 as the concentration that inhibits the measured activity by half.

T1 sequence (P97287 152-308 G222D/F227L/V232I/K236S/S261T/V262I/F267C/T274S/Q303E): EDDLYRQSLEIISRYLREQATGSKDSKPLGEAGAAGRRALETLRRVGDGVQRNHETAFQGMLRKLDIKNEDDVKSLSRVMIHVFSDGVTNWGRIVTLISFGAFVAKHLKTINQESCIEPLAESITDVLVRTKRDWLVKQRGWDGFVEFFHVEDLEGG

As for `CC(=O)O[C@@H]1[C@@H](OC(C)=O)[C@H](OC(C)=O)CO[C@H]1n1cc(-c2ccc(Cl)cc2)nn1` [compound 7, (2R,3R,4S,5R)-2-(4-(4-chlorophenyl)-1H-1,2,3-triazol-1-yl)tetrahydro-2H-pyran-3,4,5-triyl triacetate], the IC50 at Mcl-1 [1] was 4.39 µM. Regarding “AAQLRRIGDKVNLRQKLLN [NoxaB-(75–93)-C75A peptide]”, in the experiment with Mcl-1 [2], the IC50 was 650 nM. In turn, `CC(=O)O[C@@H]1[C@@H](OC(C)=O)[C@H](OC(C)=O)CO[C@H]1n1cc(-c2ccc(Br)cc2)nn1` [compound 8, (2R,3R,4S,5R)-2-(4-(4-bromophenyl)-1H-1,2,3-triazol-1-yl)tetrahydro-2H-pyran-3,4,5-triyl triacetate] registered a concentration for half-maximal inhibition (IC50) on Mcl-1 [1] of 7.03 µM.
